pIC50: −log10 of the molar value.
Tests used:
hα2C receptor = target: T1, hα2C receptor (Homo sapiens, UniProt P18825); test: Radioligand binding experiment for α2C-adrenergic receptor ([3H]-raulwolscine); details: hα2C (pIC50), CHO cell membranes with human α2C receptor, [3H]raulwolscine 1 nM
T1 construct: expressed in transfected cells
T1 sequence (P18825 1-462): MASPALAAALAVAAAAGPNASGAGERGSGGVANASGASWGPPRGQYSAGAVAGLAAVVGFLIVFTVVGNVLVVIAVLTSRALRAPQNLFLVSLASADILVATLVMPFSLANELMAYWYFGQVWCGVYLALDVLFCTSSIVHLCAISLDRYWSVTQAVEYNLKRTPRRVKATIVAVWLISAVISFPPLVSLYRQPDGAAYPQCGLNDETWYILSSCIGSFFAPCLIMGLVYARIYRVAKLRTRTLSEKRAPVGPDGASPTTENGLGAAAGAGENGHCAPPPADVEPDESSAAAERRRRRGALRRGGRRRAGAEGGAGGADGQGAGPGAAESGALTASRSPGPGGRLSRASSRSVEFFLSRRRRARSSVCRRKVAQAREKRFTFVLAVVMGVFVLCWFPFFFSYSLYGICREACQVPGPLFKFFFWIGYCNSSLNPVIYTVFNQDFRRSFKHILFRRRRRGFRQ
Experimental: (§1) In general, a low concentration of a radioligand with a high binding affinity for a particular receptor or transporter is incubated with a sample of a tissue preparation enriched in a particular receptor or transporter or with a preparation of cells expressing cloned human receptors in a buffered medium. During the incubation, the radioligand binds to the receptor or transporter. When equilibrium of binding is reached, the receptor bound radioactivity is separated from the non-bound radioactivity, and the receptor- or transporter-bound activity is counted. The interaction of the test compounds with the receptor is assessed in competition binding experiments. Various concentrations of the test compound are added to the incubation mixture containing the receptor- or transporter preparation and the radioligand. The test compound in proportion to its binding affinity and its concentration inhibits binding of the radioligand. The radioligand used for hα2A, hα2B and hα2C receptor binding was [^3H]-raulwolscine and for the h5-HT transporter was [^3H]paroxetine. CHO cells, stabile transfected with human adrenergic-α2A-, -α2B or α2C receptor cDNA, were cultured in Dulbecco's Modified Eagle's Medium (DMEM)/Nutrient mixture Ham's F12 (ratio 1:1)(Gibco, Gent-Belgium) supplemented with 10% heat inactivated fetal calf serum (Life Technologies, Merelbeke-Belgium) and antibiotics (100 IU/ml penicillin G, 100 μg/ml streptomycin sulphate, 110 μg/ml pyruvic acid and 100 μg/ml L-glutamine). One day before collection, cells were induced with 5 mM sodiumbutyrate. Upon 80-90% of confluence, cells were scraped in phosphate buffered saline without Ca^2+ and Mg^2+ and collected by centrifugation at 1500×g for 10 min. The cells were homogenised in Tris-HCl 50 mM using an Ultraturrax homogenizer and centrifuged for 10 min at 23,500×g. The pellet was washed once by resuspension and rehomogenization and the final pellet was resuspended in Tris-HCl, divided in 1 ml aliquots and stored at −70° C. Membranes were thawed and re-homogenized in incubation buffer (glycylglycine 25 mM, pH 8.0). In a total volume of 500 μl, 2-10 μg protein was incubated with [^3H]raulwolscine (NET-722) (New England Nuclear, USA) (1 nM final concentration) with or without competitor for 60 min at 25° C. followed by rapid filtration over GF/B filter using a Filtermate196 harvester (Packard, Meriden, Conn.). Filters were rinsed extensively with ice-cold rinsing buffer (Tris-HCl 50 mM pH 7.4). Filter-bound radioactivity was determined by scintillation counting in a Topcount (Packard, Meriden, Conn.) and results were expressed as counts per minute (cpm). Non-specific binding was determined in the presence of 1 μM oxymetazoline for hα2A- and hα2B receptors and 1 μM spiroxatrine for hα2C receptors. Data from assays in the presence of compound were calculated as a percentage of total binding measured in the absence of test compound. Inhibition curves, plotting percent of total binding versus the log value of the concentration of the test compound, were automatically generated, and sigmoidal inhibition curves were fitted using non-linear regression. The pIC50 values of test compounds were derived from individual curves.

h5-HT transporter = target: T2, h5-HT transporter (Homo sapiens, UniProt P31645); test: Radioligand binding experiment for 5-HT transporter ([3H]paroxetine); details: human platelet membranes, [3H]paroxetine 0.5 nM
T2 construct: Human platelet membranes (Oceanix Biosciences Corporation, Hanover, Md., USA) were thawed; tissue Oceanix Biosciences Corporation, Hanover, Md., USA; host or cells: human platelet membranes
T2 sequence (P31645 whole entry): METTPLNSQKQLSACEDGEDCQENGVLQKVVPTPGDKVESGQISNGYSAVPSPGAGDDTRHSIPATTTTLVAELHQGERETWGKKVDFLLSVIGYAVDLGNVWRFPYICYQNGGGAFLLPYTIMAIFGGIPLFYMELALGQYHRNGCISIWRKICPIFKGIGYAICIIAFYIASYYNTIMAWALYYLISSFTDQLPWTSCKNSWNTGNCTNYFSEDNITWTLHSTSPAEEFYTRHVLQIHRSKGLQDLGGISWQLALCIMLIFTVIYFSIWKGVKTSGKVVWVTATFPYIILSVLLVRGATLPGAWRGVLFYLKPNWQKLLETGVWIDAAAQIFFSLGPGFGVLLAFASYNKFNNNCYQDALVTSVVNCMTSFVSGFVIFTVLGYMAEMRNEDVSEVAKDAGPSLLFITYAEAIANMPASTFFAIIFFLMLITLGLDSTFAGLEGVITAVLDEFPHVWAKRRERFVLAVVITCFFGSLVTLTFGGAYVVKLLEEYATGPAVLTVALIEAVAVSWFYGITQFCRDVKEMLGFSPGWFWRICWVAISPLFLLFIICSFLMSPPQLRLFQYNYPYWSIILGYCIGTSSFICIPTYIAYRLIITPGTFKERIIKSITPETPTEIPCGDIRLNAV
Experimental: In general, a low concentration of a radioligand with a high binding affinity for a particular receptor or transporter is incubated with a sample of a tissue preparation enriched in a particular receptor or transporter or with a preparation of cells expressing cloned human receptors in a buffered medium. During the incubation, the radioligand binds to the receptor or transporter. When equilibrium of binding is reached, the receptor bound radioactivity is separated from the non-bound radioactivity, and the receptor- or transporter-bound activity is counted. The interaction of the test compounds with the receptor is assessed in competition binding experiments. Various concentrations of the test compound are added to the incubation mixture containing the receptor- or transporter preparation and the radioligand. The test compound in proportion to its binding affinity and its concentration inhibits binding of the radioligand. The radioligand used for hα2A, hα2B and hα2C receptor binding was [^3H]-raulwolscine and for the h5-HT transporter was [^3H]paroxetine. Human platelet membranes (Oceanix Biosciences Corporation, Hanover, Md., USA) were thawed, diluted in buffer (Tris-HCl 50 mM, 120 mM NaCl and 5 mM KCl) and quickly (max 3 s) homogenised with an Ultraturrax homogenizer. In a total volume of 250 μL, 50-100 μg protein was incubated with [^3H]paroxetine (NET-869) (New England Nuclear, USA) (0.5 nM final concentration) with or without competitor for 60 min at 25 ° C. Incubation was stopped by rapid filtration of the incubation mixture over GF/B filters, pre-wetted with 0.1% polyethyleneamine, using a Filtermate196 harvester (Packard, Meriden, Conn.). Filters were rinsed extensively with ice-cold buffer and radioactivity on the filters was counted in a Topcount liquid scintillation counter (Packard, Meriden, Conn.). Data were expressed as cpm. Imipramine (at 1 μM final concentration) was used to determine the non-specific binding. Data from assays in the presence of compound were calculated as a percentage of total binding measured in the absence of test compound. Inhibition curves, plotting percent of total binding versus the log value of the concentration of the test compound, were automatically generated, and sigmoidal inhibition curves were fitted using non-linear regression. The pIC50 values of test compounds were derived from individual curves.

hα2B receptor = target: T3, hα2B receptor (Homo sapiens, UniProt P18089); test: Radioligand binding experiment for α2B-adrenergic receptor ([3H]-raulwolscine); details: hα2B (pIC50), CHO cell membranes with human α2B receptor, [3H]raulwolscine 1 nM
T3 construct: expressed in transfected cells
T3 sequence (P18089 1-450): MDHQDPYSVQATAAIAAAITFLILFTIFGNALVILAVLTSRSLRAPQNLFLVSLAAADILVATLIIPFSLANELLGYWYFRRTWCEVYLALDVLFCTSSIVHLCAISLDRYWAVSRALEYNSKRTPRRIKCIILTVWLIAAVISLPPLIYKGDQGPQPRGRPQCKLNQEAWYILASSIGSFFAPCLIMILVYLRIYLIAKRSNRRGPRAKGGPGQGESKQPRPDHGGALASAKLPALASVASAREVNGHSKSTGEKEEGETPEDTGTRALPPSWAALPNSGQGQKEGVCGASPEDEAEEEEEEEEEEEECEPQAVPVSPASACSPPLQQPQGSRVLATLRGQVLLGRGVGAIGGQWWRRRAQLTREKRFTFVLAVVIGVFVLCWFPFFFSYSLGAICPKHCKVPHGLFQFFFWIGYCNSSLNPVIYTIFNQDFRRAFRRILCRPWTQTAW
Experimental: as §1

hα2A receptor = target: T4, hα2A receptor (Homo sapiens, UniProt P08913); test: Radioligand binding experiment for α2A-adrenergic receptor ([3H]-raulwolscine); details: hα2A (pIC50), CHO cell membranes with human α2A receptor, [3H]raulwolscine 1 nM
T4 construct: expressed in transfected cells
T4 sequence (P08913 1-465): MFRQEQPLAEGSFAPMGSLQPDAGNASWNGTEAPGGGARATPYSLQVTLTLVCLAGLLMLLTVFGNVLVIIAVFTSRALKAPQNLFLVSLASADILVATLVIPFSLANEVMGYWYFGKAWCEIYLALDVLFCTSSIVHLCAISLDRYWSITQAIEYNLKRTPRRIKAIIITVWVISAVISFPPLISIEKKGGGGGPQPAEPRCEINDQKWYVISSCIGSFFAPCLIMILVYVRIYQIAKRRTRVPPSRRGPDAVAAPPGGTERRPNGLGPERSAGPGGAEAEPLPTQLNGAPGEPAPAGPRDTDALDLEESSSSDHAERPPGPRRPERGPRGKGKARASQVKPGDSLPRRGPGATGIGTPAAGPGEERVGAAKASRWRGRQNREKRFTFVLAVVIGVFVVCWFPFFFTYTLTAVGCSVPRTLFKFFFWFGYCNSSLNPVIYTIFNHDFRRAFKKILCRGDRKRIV
Experimental: as §1

C/C(=C\c1ccccc1)CN1CCN(CC2ON=C3c4cc5ccn(CCO)c5cc4OCC32)CC1 (single isomer, unassigned) [Compound 16, A-2-{3-[4-(2-methyl-3-phenyl-allyl)-piperazin-1-ylmethyl]-3a,4-dihydro-3H-2,5-dioxa-1,7-diaza-dicyclopenta[a,g]naphthalen7-yl}-ethanol]
pIC50 (hα2C receptor): 7.30 | 5-HTT (pIC50) (h5-HT transporter): 6.3 | melting point: 167.9 to 170.2 °C | pIC50 (hα2B receptor): 7.70 | pIC50 (hα2A receptor): 6.50

From patent publication US7501418B2, “Fused heterocyclic isoxazoline derivatives and their use as anti-depressants” (Janssen Pharmaceutica, N.V., priority 2002, dated 2009)
